Measurements reported in patent US5276217A, “Cyclic anti-tumor promoter compounds, compositions and methods for production and use” (University of Hawaii, priority 1992, dated 1994).
pIC50: −log10 of the molar value. Where two headings read alike, the source gives them in different places.

What was measured:
tumor promotion = conditions: prior art, in words, cited from earlier work
ras farnesyl transferase = target: T1, ras farnesyl transferase (Bos taurus, UniProt P29702+P49355); experiment: inhibition of the farnesylation of ras-p21 by ras farnesyl transferase (3H-farnesylpyrophosphate incorporation); type: biochemical, bovine
T1 construct: ras farnesyl transferase obtained from bovine brain; from tissue; host or cells: bovine brain
Procedure: This inhibitory activity is assayed using partially purified ras farnesyl transferase obtained from bovine brain by DEA gel filtration (J. Biol. Chem., 260, 15575, 1991) purified to display a single band in gel electrophoresis. […] This mixture is incubated at 37° C. for 20 minutes. The solutes are then precipitated with trichloroacetic acid (TCA) and the precipitate is filtered on a glass filter. The amount of farnesyl incorporated into the ras-p21 is then determined by liquid scintillation.

pIC50 (ras farnesyl transferase; 37° C., 20 minutes, pH 7.5, 0.67 μM 3H-Farnesylpyrophosphate, 4 μg ras-p21) | Compound | anti-tumor promoter activity (tumor promotion) | inhibition of the farnesylation of ras-p21, in words (ras farnesyl transferase; conclusion from Example 7) | anti-tumor promoter activity (tumor promotion; listed as sarcophytol A)
 | C=C(C)C1CC=C(C)CC1 (stereo not shown) [Limonene, 1-methyl-4-(methylethenyl) cylcohexene] | has not been shown to have substantial anti-tumor promoter activity |  | 
 | C/C1=C\C=C(\C(C)C)[C@@H](O)[C@H](O)/C(C)=C/CC/C(C)=C/CC1 [Sarcophytol B] | have been shown to have anti-tumor promoter activity |  | 
 | CCCCC[C@H](O)CC(=O)CCc1ccc(O)c(OC)c1 [Gingerol, (S)-5-Hydroxy-1-(4-hydroxy-3-methoxyphenyl)-3-decanone] | reported to be an inhibitor of tumor promotion |  | 
< 3.00 | CC1=CC=C(C(C)C)C(O)CC(C)=CCCC(C)=CCC1 (stereo not shown) [Sarcophytol A] | have been shown to have anti-tumor promoter activity | does not appear to be an effective inhibitor | displays antitumor promoting properties
